Earlier results in patent US20090010894A1, “METHODS AND SYSTEMS FOR IDENTIFYING COMPOUNDS THAT MODULATE ALPHA-SYNUCLEIN AGGREGATION” (The parkinson's Institute, priority 2005, published 2009).

Columns and labels:
α-synuclein = α-synuclein (Homo sapiens, UniProt P37840); conditions: aggregated α-synuclein contacted with agent in vitro
[1] = test system: transgenic C. elegans expressing A53T, E46K, or A30P human α-synuclein; conditions: exogenous dopamine; transgenic worms expressing mutant human α-synuclein

promotes disaggregation of α-synuclein (α-synuclein)	Structure (SMILES)	reversal of failure in food-sensing behavior [1]
shown to have such an effect	CO[C@H]1/C=C/O[C@@]2(C)Oc3c(C)c(O)c4c(O)c(c(/C=N/N5CCN(C)CC5)c(O)c4c3C2=O)NC(=O)/C(C)=C\C=C\[C@H](C)[C@H](O)[C@@H](C)[C@@H](O)[C@@H](C)[C@H](OC(C)=O)[C@@H]1C [rifampin]	
shown to have such an effect	CO[C@H]1/C=C/O[C@@]2(C)Oc3c(C)c(O)c4c(O)c(cc(O)c4c3C2=O)NC(=O)/C(C)=C\C=C\[C@H](C)[C@H](O)[C@@H](C)[C@@H](O)[C@@H](C)[C@H](OC(C)=O)[C@@H]1C [rifamycin]	
	NCCc1ccc(O)c(O)c1 [dopamine]	reversed these effects
